Data as given in patent US20220331301A1, “CYSTIC FIBROSIS TRANSMEMBRANE CONDUCTANCE REGULATOR MODULATORS FOR TREATING AUTOSOMAL RESESSIVE POLYCYSTIC KIDNEY DISEASE” (The Johns Hopkins University, priority 2021, published 2022).

Test system: Pkhd1^del4/del4 cholangiocytes
Experiment: Cyst growth of cholangiocytes on matrigel (3D culture)
Assay type: cell-based, mice
Settings: for cyst growth / cyst area: 10 μM continuous, cysts induced with Forskolin (10 μM)
Protocol: (§1) Note that the cysts treated with forskolin (for) grew larger. […] Note that the cysts treated with forskolin (for) grew larger. […] FIG. 3C for 1 wk. […] Cysts were induced with Forskolin (10 μM) for 24 hours prior to study. Columns represent means±standard error (SEM). **P<0.01 ****P<0.0001 (for all graphs). Statistical analysis was performed using an unpaired two-tailed Student's t-test;
as §1, with “4C” for “3C”
But cysts do develop from the Pkhd1del4/del4 cholangiocytes. Cyst growth is accelerated by forskolin (for). […] Yanda et al., 2018. The dosage of VX-809 injected was lower than the human pediatric dose, which is 500 mg of Lumacaftor per day; the adult dose is 800 mg/day.
(Methods and cells provided by the Yale O'Brian Center) To create the cholangiocyte cultures PKhd1del/4/del4, Garcia-Gonzalez et al., 2007, animals were crossed with mice transgenic for the Sv40 large T Antigen (strain name SV40 T-antigen JAX strain #002233). Segments of intrahepatic bile ducts were microdissected from livers perfused via the portal vein with molten agarose containing toluidine blue to mark the veins. The liver parenchyma was stripped until the biliary tree was identified and the bile duct units were seeded onto rat type I collagen coated plates. Cells were cultured under non-permissive conditions in the following medium: DMEM/F12 with 5% fetal bovine serum, 10 μL/mL insulin-transferrin selenium, 3.4 μg/mL triiodothyronine, 50,000 U penicillin/streptomycin under humidified conditions at 37° C. in 5% CO2. After one week, the cells were cultured under permissive conditions in the presence of 10 U of interferon-γ at 33° C. in 5% CO2. When confluent, cells were passaged by digesting the collagen slab below the cells (60 min; 37° C.; DMEM/F12 with 2 mg/mL dispase and 1 mg/mL collagenase type 11), then washed twice in PBS and plated onto collagen coated support systems. Clonal cell lines were generated by single cell isolation. Cells were differentiated for 10 days at 37° C. without interferon-γ for experimental use.

CCOc1ccc2c(-c3cccc(F)c3)nn(CC(=O)N(C)c3ccc4nc(C)oc4c3)c(=O)c2c1 [FDL 169]
cyst growth in 3D culture (Pkhd1del4/del4 cholangiocytes, time not stated): reduces growth
cyst growth / cyst area (monitored for 1 week): reduced cyst growth in the presence of forskolin
cyst growth / cyst area (monitored for 48 hrs): reduced cyst growth in the presence of forskolin
